Legend:
LCMV-CL13 [1] = test system: LCMV-CL13; design: species or system mice (C57BL/6); conditions: mouse, in vivo
LCMV-CL13 [2] = test system: LCMV-CL13; design: species or system mice (C57BL/6); conditions: mouse, in vivo; remark: listed apart in the source
P14+ CD8 T cells = format: cell-based, mice

CCc1nc2c(C)nc(C)cc2n1-c1ccc(CCNC(=O)NS(=O)(=O)c2ccc(C)cc2)cc1 [CJ-23423]
number of virus-specific CD8+ T cells (LCMV-CL13 [1]): increased
INFγ, TNFα, and IL-2 production by CD8+ T cells stimulated with LCMV peptides GP276, GP33 and NP396 (LCMV-CL13 [2]): increased

CCCCc1nn(-c2ccccc2C(F)(F)F)c(=O)n1Cc1ccc(-c2ccccc2S(=O)(=O)NC(=O)c2sccc2C)cc1 [L161,982]
number of virus-specific CD8+ T cells (LCMV-CL13 [1]): increased
INFγ, TNFα, and IL-2 production by CD8+ T cells stimulated with LCMV peptides GP276, GP33 and NP396 (LCMV-CL13 [2]): increased

CCCCC[C@H](O)/C=C/[C@H]1[C@H](O)CC(=O)[C@@H]1C/C=C\CCCC(=O)O [PGE2]
inhibition of TNF-α and IL-2 production (P14+ CD8 T cells): 75-80%
production of IFN-γ, TNF-α and IL-2 (all three cytokines) (P14+ CD8 T cells): suppressed
effect on cytokine production (P14+ CD8 T cells; EP2/4 DKO P14+ CD8 T cells, 40 μM PGE2): very little effect

CC(C)Oc1ccc2c(=O)c3cc(C(=O)O)ccc3oc2c1 [AH6809]
number of virus-specific CD8+ T cells (LCMV-CL13 [1]): increased
INFγ, TNFα, and IL-2 production by CD8+ T cells stimulated with LCMV peptides GP276, GP33 and NP396 (LCMV-CL13 [2]): increased

COc1ccc2cc(OCC3(C(=O)O)CN(C(=O)c4ccc(F)cc4)C3)ccc2c1 [PF-04418948]
number of virus-specific CD8+ T cells (LCMV-CL13 [1]): increased
INFγ, TNFα, and IL-2 production by CD8+ T cells stimulated with LCMV peptides GP276, GP33 and NP396 (LCMV-CL13 [2]): increased

Reference: patent publication US20150004175A1, “Compositions and Methods for Reducing CTL Exhaustion” (priority 2011, published 2015)
